In US11226337B2, “Chemoproteomic profiling of protein electrophilic and oxidative post-translational modifications” (Zenagem, LLC, priority 2017, dated 2022):

How the values were obtained:
Assay in all cases: SILAC RP-ABPP
Assay type in all cases: cell-based
Conditions in all cases: SILAC H/L
[1] = biological target: T1, CTSC Dipeptidyl peptidase 1 (P53634) (Homo sapiens, UniProt P53634)
T1 construct: In Situ Labelling of Cells with Hydrazine Probes for MS Experiments; endogenous in cells; host or cells: HEK293T and/or MDA-MB-231
Description: (§1) For MS-based experiments, labelling was performed in a similar manner as described above in Example 2, maintaining the same concentrations of probes. Modifications to this protocol included using isotopically ‘light’ and ‘heavy’ SILAC cells that were also grown to near complete confluence prior to treatment. Isotopically light cells were treated with the non-clickable hydrazine probe (at the same concentration as the probe in ‘enrichment’ experiments) or the probe in the presence of 10-fold excess non-clickable hydrazine probe as a competitor (in ‘competition’ experiments). Isotopically heavy cells were treated with the probe for both types of experiments. These treatments were performed in non-SILAC media. Following treatments, cells were washed with cold PBS to remove the probe-containing media, harvested by scraping, collected by centrifugation (1,400 g, 3 min, 4° C.), washed again by resuspension in cold PBS and frozen as pellets at −80° C. until use.
(§2) The fractionated equimolar mixture of heavy and light soluble proteomes (1-1.5 mg) was diluted to 1 mL in PBS. Click reactions were scaled accordingly (except for biotin-azide) to maintain final concentrations of 0.1 mM TBTA, 1 mM CuSO4, 100 μM biotin-azide (10 mM in DMSO) and 1 mM TCEP. The mixture was vortexed and placed on a rotator at ambient temperature for 1 hour. Sequential addition of and mixture with pre-chilled methanol (MeOH, 2 mL), chloroform (CHCl3, 0.5 mL) and PBS (1 mL) on ice quenched the reaction. The precipitated proteome was centrifuged (5,000 g, 10 min, 4° C.) to fractionate the protein interphase from the organic and aqueous solvent layers. The protein pellet was washed with cold 1:1 MeOH:CHCl3 (3×1 mL), mildly sonicated in cold 4:1 MeOH:CHCl3 (2.5 mL) and pelleted once more by centrifugation (5,000 g, 10 min, 4° C.) to ensure click reagents were efficiently removed.
(§3) Heavy and light parent ion chromatograms associated with successfully identified peptides were extracted and compared using CIMAGE software as previously described^69. At least one ion of a co-eluting heavy-light pair must be accurately identified from a fragmentation event that occurred within the retention time window (±10 min) of parent ion elution. To ensure that the correct pair of peaks is quantified, chromatograms are extracted within a 10 ppm error tolerance of the predicted m/z, the signal-to-noise ratio must be >2.5 and the ‘co-elution correlation score’ and ‘envelope correlation score’ must have R^2 values ≥0.8. In addition, peptides detected as ‘singletons,’ where only the heavy ion of a peptide pair was identified, but for which passed all other filtering parameters, are given a default assigned ratio of ‘20,’ which is defined as any measured ratio that is ≥20.
(§4) To further eliminate false positives and any stochastic variability in the data, protein ratios were then determined by the median peptide ratio derived from three or more unique quantified peptides. Protein ratios that complied with these criteria from a single experiment were then averaged with ratios acquired from ≥3 replicates to provide final values for each type of experiment in both cell lines with both probes. […] Most importantly, there are no robustly measured ratios for proteins identified as probe 1 targets that had measured ratios of ˜1 with probe 2. Probe targets in HEK293T and MDA-MB-231 cells represent data combined from ≥3 independent biological replicates with each cell type performed with several independent batches of synthesized probes over a period of almost two years.
(§5) Analogous experiments were also performed with the aryl hydrazine probe 2 (1 mM, 0.5 hour), which furnished a larger list of high-reactivity proteins (33 in total; Table 3) that contained several of the targets of probe 1 (compared in Table 4), as well as additional proteins that may reflect an expanded chemical reactivity for probe 2.

[2] = biological target: T2, FTO Alphaketoglutaratedependent dioxygenase (Q9C0B1) (Homo sapiens, UniProt Q9C0B1)
T2 construct: In Situ Labelling of Cells with Hydrazine Probes for MS Experiments; endogenous in cells; host or cells: HEK293T and/or MDA-MB-231
Description: as §1, §2, §3, §4, §5

[3] = biological target: T3, DENR Densityregulated protein (O43583) (Homo sapiens, UniProt O43583)
T3 construct: In Situ Labelling of Cells with Hydrazine Probes for MS Experiments; endogenous in cells; host or cells: HEK293T and/or MDA-MB-231
T3 sequence (O43583 1-198): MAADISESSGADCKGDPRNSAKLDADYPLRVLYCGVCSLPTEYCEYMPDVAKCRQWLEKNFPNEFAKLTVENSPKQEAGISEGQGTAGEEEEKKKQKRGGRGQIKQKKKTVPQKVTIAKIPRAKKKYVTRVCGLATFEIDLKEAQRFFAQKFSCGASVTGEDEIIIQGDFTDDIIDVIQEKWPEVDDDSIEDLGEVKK
Description: as §1, §2, §3, §4, §5

[4] = biological target: T4, FTH1 Ferritin heavy chain (P02794) (Homo sapiens, UniProt P02794)
T4 construct: In Situ Labelling of Cells with Hydrazine Probes for MS Experiments; endogenous in cells; host or cells: HEK293T and/or MDA-MB-231
Description: as §1, §2, §3, §4, §5

[5] = biological target: T5, PPT1 Palmitoylprotein thioesterase 1 (P50897) (Homo sapiens, UniProt P50897)
T5 construct: In Situ Labelling of Cells with Hydrazine Probes for MS Experiments; endogenous in cells; host or cells: HEK293T and/or MDA-MB-231
T5 sequence (P50897 28-306): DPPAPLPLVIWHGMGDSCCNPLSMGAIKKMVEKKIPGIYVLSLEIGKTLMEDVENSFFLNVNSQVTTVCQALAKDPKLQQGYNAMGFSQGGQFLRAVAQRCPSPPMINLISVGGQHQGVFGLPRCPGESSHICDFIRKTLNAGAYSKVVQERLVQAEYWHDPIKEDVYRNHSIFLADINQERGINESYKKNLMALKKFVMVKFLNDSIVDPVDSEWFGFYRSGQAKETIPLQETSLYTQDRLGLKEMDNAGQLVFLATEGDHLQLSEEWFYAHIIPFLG
Description: as §1, §2, §3, §4, §5

[6] = biological target: T6, CTSA Lysosomal protective protein (P10619) (Homo sapiens, UniProt P10619)
T6 construct: In Situ Labelling of Cells with Hydrazine Probes for MS Experiments; endogenous in cells; host or cells: HEK293T and/or MDA-MB-231
T6 sequence (P10619 29-480): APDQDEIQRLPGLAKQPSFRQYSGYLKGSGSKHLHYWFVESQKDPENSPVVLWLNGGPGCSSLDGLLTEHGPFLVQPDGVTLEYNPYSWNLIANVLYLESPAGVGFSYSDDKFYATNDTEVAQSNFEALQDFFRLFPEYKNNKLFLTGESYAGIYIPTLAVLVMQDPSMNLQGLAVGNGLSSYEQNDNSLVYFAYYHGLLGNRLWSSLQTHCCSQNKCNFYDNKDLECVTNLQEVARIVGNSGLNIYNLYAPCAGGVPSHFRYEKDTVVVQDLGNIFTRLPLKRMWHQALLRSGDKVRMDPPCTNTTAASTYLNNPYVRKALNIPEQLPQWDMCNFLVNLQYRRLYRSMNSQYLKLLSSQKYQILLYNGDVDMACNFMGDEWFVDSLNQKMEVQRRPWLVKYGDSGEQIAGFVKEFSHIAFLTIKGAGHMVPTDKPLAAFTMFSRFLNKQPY
Description: as §1, §2, §3, §4, §5

[7] = probe 1 vs probe 1+10x probe 3, cell line not given
[8] = probe 1 3 mM 0.5 h vs probe 3, cell line not given
[9] = probe 2 1 mM 0.5 h vs probe 4, MDA-MB-231
[10] = probe 2 vs probe 2+10x probe 4, MDA-MB-231

C#CCNN.Cl [probe 1, prop-2-yn-1-ylhydrazine hydrochloride]
competition ratioavg [1, 7]: 3 | competition ratioavg [2, 7]: 1 | competition ratioavg [3, 7]: 1 | enrichment ratioavg [4, 8]: 1 | competition ratioavg [4, 7]: 1 | competition ratioavg [5, 7]: 5 | enrichment ratioavg [6, 8]: 4 | competition ratioavg [6, 7]: 4

C#CCCNC(=O)c1ccc(NN)cc1.Cl [probe 2, N-(but-3-yn-1-yl)-4-hydrazinylbenzamide hydrochloride]
enrichment ratioavg [1, 9]: 20 | competition ratioavg [1, 10]: 9 | enrichment ratioavg ([2]; probe 2 1 mM 0.5 h vs probe 4, HEK293T): 13 | competition ratioavg ([2]; probe 2 vs probe 2+10x probe 4, HEK293T): 5 | enrichment ratioavg [3, 9]: 20 | competition ratioavg [3, 10]: 5 | enrichment ratioavg [4, 9]: 20 | competition ratioavg [4, 10]: 5 | enrichment ratioavg [5, 9]: 20 | competition ratioavg [5, 10]: 5 | enrichment ratioavg [6, 9]: 9 | competition ratioavg [6, 10]: 4
